Reference: patent publication US20240158391A1, “DERIVATIVES OF 4-(IMIDAZO[1,2-A]PYRIDIN-3-YL)-N-(PYRIDIN-3-YL) PYRIMIDIN-2- AMINE FOR TREATING PROLIFERATIVE DISEASES AND CONDITIONS” (AUCENTRA THERAPEUTICS PTY LTD, priority 2019, published 2024)

Tests used:
MV-4-11 = test: Proliferation assay (resazurin, leukemia cell lines), MV-4-11; assay type: cell-based; settings: Homo sapiens, MV4-11, read-out: 72 h Growth inhibition GI50, MV-4-11 cells
Excerpt: The following compounds were used as comparators.

CDK2/CyclinA2 = CDK2/CyclinA2 (Homo sapiens, UniProt P24941); test: ADP Glo kinase assay, CDK2/CyclinA2; assay type: biochemical; settings: for Ki: Km ATP, read-out: Enzymatic inhibition, Ki, CDK2 A; for remaining activity at 1 µM: compound at 1 μM, read-out: Residual enzymatic activity (%) at 1 μM, CDK2 A
Summary of the method: (§1)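 Test compounds were run as 1:3 serial dilutions over 10 concentrations (10-0.0005 μM) in 0.5% DMSO. Kinase reactions proceeded for an optimised time at room temperature before being stopped with ADP Glo reagent.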

FLT3-ITD = target: T1, FLT3-ITD (Homo sapiens, UniProt P36888); test: ADP Glo kinase assay, FLT3-ITD; assay type: biochemical; settings: for Ki: Km ATP 100 μM, read-out: Enzymatic inhibition, Ki, FLT3-ITD
T1 sequence (P36888 1-993): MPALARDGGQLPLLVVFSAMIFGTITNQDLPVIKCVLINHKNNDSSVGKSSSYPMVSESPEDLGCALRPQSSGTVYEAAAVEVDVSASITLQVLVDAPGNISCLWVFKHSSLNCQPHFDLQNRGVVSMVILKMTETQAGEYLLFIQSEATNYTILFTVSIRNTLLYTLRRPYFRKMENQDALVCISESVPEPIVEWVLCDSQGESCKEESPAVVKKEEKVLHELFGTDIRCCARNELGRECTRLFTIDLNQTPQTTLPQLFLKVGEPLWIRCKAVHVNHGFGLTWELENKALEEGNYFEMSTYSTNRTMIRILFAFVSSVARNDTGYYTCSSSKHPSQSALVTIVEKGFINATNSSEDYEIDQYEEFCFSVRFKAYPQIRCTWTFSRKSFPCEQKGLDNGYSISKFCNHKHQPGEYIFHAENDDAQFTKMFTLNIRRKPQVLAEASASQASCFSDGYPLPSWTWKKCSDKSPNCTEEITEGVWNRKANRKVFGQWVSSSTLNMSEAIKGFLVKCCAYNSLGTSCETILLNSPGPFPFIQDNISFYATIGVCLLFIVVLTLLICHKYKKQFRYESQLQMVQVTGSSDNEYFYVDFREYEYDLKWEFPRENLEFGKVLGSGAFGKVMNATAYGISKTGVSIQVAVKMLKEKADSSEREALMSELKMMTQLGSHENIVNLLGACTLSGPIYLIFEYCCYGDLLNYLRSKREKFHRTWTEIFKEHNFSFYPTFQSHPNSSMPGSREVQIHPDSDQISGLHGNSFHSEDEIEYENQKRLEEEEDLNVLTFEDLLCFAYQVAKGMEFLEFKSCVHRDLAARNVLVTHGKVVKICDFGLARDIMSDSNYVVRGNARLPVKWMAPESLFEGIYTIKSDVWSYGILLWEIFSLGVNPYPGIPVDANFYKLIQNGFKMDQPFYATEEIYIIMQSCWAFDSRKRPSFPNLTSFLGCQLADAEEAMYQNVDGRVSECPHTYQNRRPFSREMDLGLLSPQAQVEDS
Summary of the method: as §1

CDK1/CyclinB = CDK1/CyclinB (Homo sapiens, UniProt P06493); test: ADP Glo kinase assay, CDK1/CyclinB; assay type: biochemical; settings: for Ki: Km ATP, read-out: Enzymatic inhibition, Ki, CDK1 B; for remaining activity at 1 µM: compound at 1 μM, read-out: Residual enzymatic activity (%) at 1 μM, CDK1 B
CDK1/CyclinB, sequence (P06493 whole entry, species assumed): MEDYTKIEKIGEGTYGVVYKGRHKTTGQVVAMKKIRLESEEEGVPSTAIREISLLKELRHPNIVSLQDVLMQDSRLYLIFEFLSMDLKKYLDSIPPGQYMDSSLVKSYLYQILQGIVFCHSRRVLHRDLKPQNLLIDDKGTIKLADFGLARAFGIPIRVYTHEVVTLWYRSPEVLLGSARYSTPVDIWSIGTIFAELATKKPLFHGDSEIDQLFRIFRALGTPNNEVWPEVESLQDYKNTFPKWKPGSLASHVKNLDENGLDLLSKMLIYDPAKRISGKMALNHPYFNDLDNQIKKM
CDK1/CyclinB, sequence (P14635 whole entry partner, species assumed): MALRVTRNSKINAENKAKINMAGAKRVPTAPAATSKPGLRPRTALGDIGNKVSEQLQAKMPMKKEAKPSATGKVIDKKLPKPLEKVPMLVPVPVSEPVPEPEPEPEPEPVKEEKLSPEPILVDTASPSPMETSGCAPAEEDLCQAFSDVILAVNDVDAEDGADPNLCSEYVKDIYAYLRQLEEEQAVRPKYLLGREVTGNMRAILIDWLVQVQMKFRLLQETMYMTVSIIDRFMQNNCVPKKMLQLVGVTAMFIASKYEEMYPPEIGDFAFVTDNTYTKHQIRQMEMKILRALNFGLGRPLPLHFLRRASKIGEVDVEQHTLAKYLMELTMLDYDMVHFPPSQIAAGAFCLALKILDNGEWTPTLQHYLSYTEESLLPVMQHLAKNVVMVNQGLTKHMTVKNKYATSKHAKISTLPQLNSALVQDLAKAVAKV
Summary of the method: as §1

CDK9/CyclinT1 = CDK9/CyclinT1 (Homo sapiens, UniProt P50750); test: ADP Glo kinase assay, CDK9/CyclinT1; assay type: biochemical; settings: CDK9/CyclinT1; Km ATP; read-out: Enzymatic inhibition, Ki, CDK9 T1
CDK9/CyclinT1, sequence (P50750 whole entry, species assumed): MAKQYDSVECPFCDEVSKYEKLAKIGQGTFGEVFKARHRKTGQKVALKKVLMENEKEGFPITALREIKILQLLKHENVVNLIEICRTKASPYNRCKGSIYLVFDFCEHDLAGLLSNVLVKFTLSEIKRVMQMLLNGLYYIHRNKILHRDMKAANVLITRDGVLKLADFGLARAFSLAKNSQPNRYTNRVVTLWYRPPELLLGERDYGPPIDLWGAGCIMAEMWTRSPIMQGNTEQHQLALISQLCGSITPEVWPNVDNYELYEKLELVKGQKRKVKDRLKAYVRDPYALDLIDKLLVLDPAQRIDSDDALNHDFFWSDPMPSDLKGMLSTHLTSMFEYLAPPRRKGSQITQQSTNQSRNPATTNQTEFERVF
CDK9/CyclinT1, sequence (O60563 whole entry partner, species assumed): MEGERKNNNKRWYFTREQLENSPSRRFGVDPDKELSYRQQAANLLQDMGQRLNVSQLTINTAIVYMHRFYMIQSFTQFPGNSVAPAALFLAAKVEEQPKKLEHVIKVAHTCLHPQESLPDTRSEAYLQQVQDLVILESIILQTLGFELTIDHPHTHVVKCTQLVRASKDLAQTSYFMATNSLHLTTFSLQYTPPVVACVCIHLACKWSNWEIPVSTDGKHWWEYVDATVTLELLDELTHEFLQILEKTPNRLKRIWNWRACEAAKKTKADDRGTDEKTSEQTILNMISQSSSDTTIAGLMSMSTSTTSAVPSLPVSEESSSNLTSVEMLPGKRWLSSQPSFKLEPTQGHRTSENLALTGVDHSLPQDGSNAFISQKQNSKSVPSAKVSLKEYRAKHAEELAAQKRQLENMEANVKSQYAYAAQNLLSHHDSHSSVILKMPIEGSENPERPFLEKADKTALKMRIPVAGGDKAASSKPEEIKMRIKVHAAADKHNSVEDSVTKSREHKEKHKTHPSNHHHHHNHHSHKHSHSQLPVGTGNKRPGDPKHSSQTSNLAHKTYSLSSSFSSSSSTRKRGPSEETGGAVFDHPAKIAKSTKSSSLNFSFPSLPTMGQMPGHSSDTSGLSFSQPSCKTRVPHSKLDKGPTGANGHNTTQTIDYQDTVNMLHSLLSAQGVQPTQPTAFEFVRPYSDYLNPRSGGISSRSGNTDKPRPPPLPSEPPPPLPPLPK
Summary of the method: as §1

CDK4/CyclinD1 = CDK4/CyclinD1 (Homo sapiens, UniProt P11802); test: ADP Glo kinase assay, CDK4/CyclinD1; assay type: biochemical; settings: for Ki: Km ATP, read-out: Enzymatic inhibition, Ki, CDK4 D1; for remaining activity at 1 µM: compound at 1 μM, read-out: Residual enzymatic activity (%) at 1 μM, CDK4 D1
CDK4/CyclinD1, sequence (P11802 whole entry, species assumed): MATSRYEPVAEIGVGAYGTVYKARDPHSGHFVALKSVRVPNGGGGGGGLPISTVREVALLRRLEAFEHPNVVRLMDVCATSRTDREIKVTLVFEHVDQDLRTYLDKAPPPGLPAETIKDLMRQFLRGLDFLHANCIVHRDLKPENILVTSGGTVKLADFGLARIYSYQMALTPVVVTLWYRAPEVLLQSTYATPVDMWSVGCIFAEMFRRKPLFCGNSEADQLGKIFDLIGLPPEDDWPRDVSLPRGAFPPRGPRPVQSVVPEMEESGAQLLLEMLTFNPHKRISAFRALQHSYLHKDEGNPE
CDK4/CyclinD1, sequence (P24385 whole entry partner, species assumed): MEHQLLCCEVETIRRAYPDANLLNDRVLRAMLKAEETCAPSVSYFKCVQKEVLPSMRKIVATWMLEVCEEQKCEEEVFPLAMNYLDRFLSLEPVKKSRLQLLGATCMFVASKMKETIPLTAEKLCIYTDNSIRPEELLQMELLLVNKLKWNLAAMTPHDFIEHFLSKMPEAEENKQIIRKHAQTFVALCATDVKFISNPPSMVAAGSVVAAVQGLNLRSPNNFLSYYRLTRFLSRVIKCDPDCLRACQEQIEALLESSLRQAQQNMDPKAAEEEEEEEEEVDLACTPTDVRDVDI
Experimental: Test compounds are used in 1:3 serial dilutions for 10 concentrations (from 10-0.0005 μM) in 0.5% DMSO. […] The kinase reactions are run for optimised time period at room temperature and then the reaction is stopped by adding 5 μL of ADP Glo reagent.

CDK7/CyclinH/Mat1 = CDK7/CyclinH/Mat1 (Homo sapiens, UniProt P50613); test: ADP Glo kinase assay, CDK7/CyclinH/Mat1; assay type: biochemical; settings: for Ki: Km ATP, read-out: Enzymatic inhibition, Ki, CDK7 H; for remaining activity at 1 µM: compound at 1 μM, read-out: Residual enzymatic activity (%) at 1 μM, CDK7 H
CDK7/CyclinH/Mat1, sequence (P50613 whole entry, species assumed): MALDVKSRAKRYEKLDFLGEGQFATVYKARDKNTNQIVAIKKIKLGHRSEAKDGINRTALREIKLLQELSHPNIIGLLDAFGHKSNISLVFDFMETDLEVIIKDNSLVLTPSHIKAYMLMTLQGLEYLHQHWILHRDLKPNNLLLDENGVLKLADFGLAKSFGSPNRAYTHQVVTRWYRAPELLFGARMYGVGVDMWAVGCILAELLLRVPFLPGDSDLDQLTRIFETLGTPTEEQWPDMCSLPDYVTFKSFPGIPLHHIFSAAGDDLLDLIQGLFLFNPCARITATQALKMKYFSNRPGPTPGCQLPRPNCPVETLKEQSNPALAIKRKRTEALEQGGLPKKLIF
CDK7/CyclinH/Mat1, sequence (P51946 whole entry partner, species assumed): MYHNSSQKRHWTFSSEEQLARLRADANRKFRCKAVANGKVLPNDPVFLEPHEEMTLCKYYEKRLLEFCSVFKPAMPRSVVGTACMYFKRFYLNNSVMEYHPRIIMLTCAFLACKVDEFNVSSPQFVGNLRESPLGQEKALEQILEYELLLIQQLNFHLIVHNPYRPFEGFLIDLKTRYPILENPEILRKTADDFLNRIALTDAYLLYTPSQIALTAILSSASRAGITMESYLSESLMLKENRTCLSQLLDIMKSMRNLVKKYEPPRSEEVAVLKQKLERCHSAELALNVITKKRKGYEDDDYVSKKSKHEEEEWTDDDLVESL
CDK7/CyclinH/Mat1, sequence (P51948 whole entry partner, species assumed): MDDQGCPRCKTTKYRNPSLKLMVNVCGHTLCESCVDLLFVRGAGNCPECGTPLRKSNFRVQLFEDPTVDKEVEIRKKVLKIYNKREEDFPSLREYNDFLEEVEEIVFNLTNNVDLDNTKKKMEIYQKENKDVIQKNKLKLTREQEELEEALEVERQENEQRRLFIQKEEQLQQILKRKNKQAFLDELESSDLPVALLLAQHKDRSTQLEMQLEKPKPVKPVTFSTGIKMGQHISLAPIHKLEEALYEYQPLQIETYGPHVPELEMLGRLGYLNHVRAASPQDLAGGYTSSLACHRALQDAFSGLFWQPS
Summary of the method: as §1

CDK6/CyclinD3 = CDK6/CyclinD3 (Homo sapiens, UniProt Q00534); test: ADP Glo kinase assay, CDK6/CyclinD3; assay type: biochemical; settings: for Ki: Km ATP, read-out: Enzymatic inhibition, Ki, CDK6 D3; for remaining activity at 1 µM: compound at 1 μM, read-out: Residual enzymatic activity (%) at 1 μM, CDK6 D3
CDK6/CyclinD3, sequence (Q00534 whole entry, species assumed): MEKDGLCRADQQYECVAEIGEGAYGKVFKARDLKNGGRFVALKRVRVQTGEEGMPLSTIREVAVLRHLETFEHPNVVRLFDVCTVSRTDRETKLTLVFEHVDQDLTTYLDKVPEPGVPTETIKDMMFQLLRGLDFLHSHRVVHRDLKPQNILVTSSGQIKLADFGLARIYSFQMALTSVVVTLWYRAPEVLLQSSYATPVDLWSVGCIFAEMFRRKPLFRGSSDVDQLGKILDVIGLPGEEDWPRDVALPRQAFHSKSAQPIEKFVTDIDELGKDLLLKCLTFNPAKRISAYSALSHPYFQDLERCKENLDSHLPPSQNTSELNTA
CDK6/CyclinD3, sequence (P30281 whole entry partner, species assumed): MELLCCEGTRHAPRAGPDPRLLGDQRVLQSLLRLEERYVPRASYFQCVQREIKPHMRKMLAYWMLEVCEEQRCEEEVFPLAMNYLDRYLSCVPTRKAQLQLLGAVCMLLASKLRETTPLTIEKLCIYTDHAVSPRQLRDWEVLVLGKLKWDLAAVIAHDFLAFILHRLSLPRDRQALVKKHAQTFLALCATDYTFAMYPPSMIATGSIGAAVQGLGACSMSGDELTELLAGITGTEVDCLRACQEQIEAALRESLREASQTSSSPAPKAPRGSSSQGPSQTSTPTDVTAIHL
Summary of the method: as §1

| SMILES | GI50 (MV-4-11) [µM] | Ki (CDK2/CyclinA2) [µM] | Ki (FLT3-ITD) [µM] | Ki (CDK1/CyclinB) [µM] | Ki (CDK9/CyclinT1) [µM] | Ki (CDK4/CyclinD1) [µM] | Ki (CDK7/CyclinH/Mat1) [µM] | Ki (CDK6/CyclinD3) [µM] | remaining activity at 1 µM (CDK1/CyclinB) [%] | remaining activity at 1 µM (CDK4/CyclinD1) [%] | remaining activity at 1 µM (CDK6/CyclinD3) [%] | remaining activity at 1 µM (CDK2/CyclinA2) [%] | Residual enzymatic activity (%) at 1 μM, FLT3-ITD (FLT3-ITD; compound at 1 μM) [%] | remaining activity at 1 µM (CDK7/CyclinH/Mat1) [%] |
| --- | --- | --- | --- | --- | --- | --- | --- | --- | --- | --- | --- | --- | --- | --- |
| COC(=O)N1CCC(c2ccc(Nc3ncc(F)c(-c4cnc5ccc(-c6ccccc6)cn45)n3)cn2)CC1 [Compound 29, Methyl 4-(5-((5-fluoro-4-(6-phenylimidazo[1,2-a]pyridin-3-yl)pyrimidin-2-yl)amino)pyridin-2-yl)piperidine-1-carboxylate] | 0.337 | – | 0.257 | – | > 5 | – | > 5 | – | 69 | 98 | 61 | 25 | – | – |
| Fc1cnc(Nc2ccc(N3CCN(CCN4CCOCC4)CC3)nc2)nc1-c1cnc2ccc(-c3ccccc3)cn12 [Compound 30, 5-Fluoro-N-(6-(4-(2-morpholinoethyl)piperazin-1-yl)pyridin-3-yl)-4-(6-phenylimidazo[1,2-a]pyridin-3-yl)pyrimidin-2-amine] | 0.056 | 0.52 | 0.148 | – | 0.075 | – | 0.223 | – | 52 | 65 | 23 | – | – | – |
| CCOc1ccc(Nc2ncc(F)c(-c3cnc4ccc(-c5ccccc5)cn34)n2)cn1 [Compound 31, N-(6-Ethoxypyridin-3-yl)-5-fluoro-4-(6-phenylimidazo[1,2-a]pyridin-3-yl)pyrimidin-2-amine] | 0.6 | – | – | – | > 1 | – | – | – | 97 | 95 | 41 | 55 | 70 | 100 |
| O=C(c1ccc(Nc2ncc(F)c(-c3cnc4ccc(-c5ccccc5)cn34)n2)cn1)N1CCCCC1 [Compound 32, (5-((5-Fluoro-4-(6-phenylimidazo[1,2-a]pyridin-3-yl)pyrimidin-2-yl)amino)pyridin-2-yl) (piperidin-1-yl)methanone] | 0.62 | – | > 1 | – | > 1 | – | – | – | 96 | 91 | 44 | 89 | – | 100 |
| O=C(NC1CC1)c1ccc(Nc2ncc(F)c(-c3cnc4ccc(-c5ccccc5)cn34)n2)cn1 [Compound 33, N-Cyclopropyl-5-((5-fluoro-4-(6-phenylimidazo[1,2-a]pyridin-3-yl)pyrimidin-2-yl)amino) picolinamide] | 0.296 | – | > 1 | – | > 0.5 | – | – | – | 59 | 96 | 46 | 83 | – | 100 |
| Fc1cnc(Nc2ccc(Cl)nc2)nc1-c1cnc2ccc(-c3ccccc3)cn12 [Compound 34, N-(6-Chloropyridin-3-yl)-5-fluoro-4-(6-phenylimidazo[1,2-a]pyridin-3-yl)pyrimidin-2-amine] | 0.92 | – | > 1 | – | 0.33 | – | – | – | 100 | 92 | 47 | 86 | – | 92 |

Results, then the molecule that gave them:

| GI50 (MV-4-11) [µM] | Ki (CDK2/CyclinA2) [µM] | Ki (FLT3-ITD) [µM] | Ki (CDK1/CyclinB) [µM] | Ki (CDK9/CyclinT1) [µM] | Ki (CDK4/CyclinD1) [µM] | Ki (CDK7/CyclinH/Mat1) [µM] | Ki (CDK6/CyclinD3) [µM] | remaining activity at 1 µM (CDK1/CyclinB) [%] | remaining activity at 1 µM (CDK4/CyclinD1) [%] | remaining activity at 1 µM (CDK6/CyclinD3) [%] | remaining activity at 1 µM (CDK2/CyclinA2) [%] | Residual enzymatic activity (%) at 1 μM, FLT3-ITD (FLT3-ITD; compound at 1 μM) [%] | remaining activity at 1 µM (CDK7/CyclinH/Mat1) [%] | SMILES |
| --- | --- | --- | --- | --- | --- | --- | --- | --- | --- | --- | --- | --- | --- | --- |
| 0.006 | 0.038 | 0.005 | 0.199 | 0.01 | 0.094 | 0.77 | 0.243 | – | – | – | – | – | – | CN1CCN(c2ccc(Nc3nccc(-c4cnc5ccc(Cl)cn45)n3)cn2)CC1 [Compound 22, 4-(6-Chloroimidazo[1,2-a]pyridin-3-yl)-N-(6-(4-methylpiperazin-1-yl)pyridin-3-yl) pyrimidin-2-amine] |
| 0.74 | 1.08 | 0.005 | – | 0.096 | – | 0.297 | – | 100 | 94 | 44 | – | – | – | c1ccc(-c2ccc3ncc(-c4ccnc(Nc5ccc(N6CCC6)nc5)n4)n3c2)cc1 [Compound 25, N-(6-(Azetidin-1-yl)pyridin-3-yl)-4-(6-phenylimidazo[1,2-a]pyridin-3-yl)pyrimidin-2-amine] |
| 0.037 | – | 0.091 | – | 0.261 | – | > 5 | – | 60 | 92 | 53 | 27 | – | – | Brc1ccc2ncc(-c3ccnc(Nc4ccc(N5CCCC5)nc4)n3)n2c1 [Compound 26, 4-(6-Bromoimidazo[1,2-a]pyridin-3-yl)-N-(6-(pyrrolidin-1-yl)pyridin-3-yl)pyrimidin-2-amine] |
| 0.196 | – | 0.109 | – | > 5 | – | > 5 | – | 84 | 97 | 61 | 37 | – | – | c1ccc(-c2ccc3ncc(-c4ccnc(Nc5ccc(N6CCCC6)nc5)n4)n3c2)cc1 [Compound 27, 4-(6-Phenylimidazo[1,2-a]pyridin-3-yl)-N-(6-(pyrrolidin-1-yl)pyridin-3-yl)pyrimidin-2-amine] |
| 0.233 | 1.12 | 0.065 | – | 0.086 | – | 0.314 | – | 61 | 76 | 45 | – | – | – | CN1CCN(c2ccc(Nc3ncc(F)c(-c4cnc5ccc(-c6ccccc6)cn45)n3)cn2)CC1 [Compound 28, 5-Fluoro-N-(6-(4-methylpiperazin-1-yl)pyridin-3-yl)-4-(6-phenylimidazo[1,2-a]pyridin-3-yl)pyrimidin-2-amine] |
| 0.018 | 0.131 | 0.01 | 0.198 | 0.034 | 0.53 | – | – | – | – | 34 | – | – | 31 | CN1CCN(c2ccc(Nc3nccc(-c4cnc5ccc(C(F)(F)F)cn45)n3)cn2)CC1 [Compound 36, N-(6-(4-Methylpiperazin-1-yl)pyridin-3-yl)-4-(6-(trifluoromethyl)imidazo[1,2-a]pyridin-3-yl)pyrimidin-2-amine] |
| 0.024 | 0.072 | 0.026 | 0.151 | 0.014 | 0.154 | 0.174 | 0.215 | – | – | – | – | – | – | CC(C)N1CCN(c2ccc(Nc3nccc(-c4cnc5ccc(Cl)cn45)n3)cn2)CC1 [Compound 37, 4-(6-Chloroimidazo[1,2-a]pyridin-3-yl)-N-(6-(4-isopropylpiperazin-1-yl)pyridin-3-yl)pyrimidin-2-amine] |
| 0.088 | 0.563 | 0.012 | – | 0.009 | – | 0.149 | – | 46 | 55 | 41 | – | – | – | CC(C)N1CCN(c2ccc(Nc3nccc(-c4cnc5ccc(-c6ccccc6)cn45)n3)cn2)CC1 [Compound 39, N-(6-(4-Isopropylpiperazin-1-yl)pyridin-3-yl)-4-(6-phenylimidazo[1,2-a]pyridin-3-yl)pyrimidin-2-amine] |
